Measured values published in ChEMBL document CHEMBL4265934 (Eur J Med Chem, 2018).
pIC50: −log10 of the molar value. Active and inactive are the calls of the source. No cut-off for these calls is given here.

Tests used:
[1] = molecular target: T1, Phosphatidylinositol 4,5-bisphosphate 3-kinase catalytic subunit delta isoform (Homo sapiens) (UniProt O00329); experiment: Inhibition of PI3Kdelta in human basophils assessed as reduction in IgE-induced degranulation by measuring CD63 expression level at 100 uM by flow cast assay relative to control; set-up: scale not given: the % may be the effect or the level left
T1 sequence (whole entry): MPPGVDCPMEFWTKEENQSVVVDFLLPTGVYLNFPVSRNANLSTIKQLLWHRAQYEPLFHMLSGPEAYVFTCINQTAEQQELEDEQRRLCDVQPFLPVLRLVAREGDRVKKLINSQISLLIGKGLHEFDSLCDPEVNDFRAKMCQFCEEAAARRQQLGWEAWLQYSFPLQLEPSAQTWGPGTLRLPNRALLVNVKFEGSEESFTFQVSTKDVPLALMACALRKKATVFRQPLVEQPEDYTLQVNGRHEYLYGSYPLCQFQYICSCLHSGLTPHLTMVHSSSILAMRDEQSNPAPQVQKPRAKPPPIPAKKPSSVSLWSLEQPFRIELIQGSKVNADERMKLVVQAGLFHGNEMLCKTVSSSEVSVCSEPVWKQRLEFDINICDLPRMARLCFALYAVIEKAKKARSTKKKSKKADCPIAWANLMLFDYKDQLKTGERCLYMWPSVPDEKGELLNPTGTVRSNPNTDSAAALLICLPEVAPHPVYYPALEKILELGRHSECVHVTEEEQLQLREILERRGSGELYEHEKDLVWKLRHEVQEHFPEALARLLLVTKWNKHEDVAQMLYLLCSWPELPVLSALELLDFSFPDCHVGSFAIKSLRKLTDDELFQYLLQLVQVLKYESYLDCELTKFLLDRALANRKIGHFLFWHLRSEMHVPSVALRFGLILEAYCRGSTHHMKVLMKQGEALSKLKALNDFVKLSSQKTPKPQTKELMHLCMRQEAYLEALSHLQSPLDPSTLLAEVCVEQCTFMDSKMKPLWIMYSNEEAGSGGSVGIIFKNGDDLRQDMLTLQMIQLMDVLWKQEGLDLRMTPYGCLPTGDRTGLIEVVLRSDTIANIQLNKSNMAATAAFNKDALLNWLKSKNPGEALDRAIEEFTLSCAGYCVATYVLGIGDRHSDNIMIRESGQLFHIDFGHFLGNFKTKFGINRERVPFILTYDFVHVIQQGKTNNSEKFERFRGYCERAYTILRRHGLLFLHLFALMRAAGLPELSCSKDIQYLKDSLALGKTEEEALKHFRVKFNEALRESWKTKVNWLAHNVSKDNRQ

[2] = molecular target: T1, Phosphatidylinositol 4,5-bisphosphate 3-kinase catalytic subunit delta isoform (Homo sapiens); experiment: Inhibition of PI3Kdelta in human basophils assessed as reduction in IgE-induced degranulation by measuring CD203c expression level at 100 uM by fluorescence assay relative to control; set-up: scale not given: the % may be the effect or the level left
Mus musculus [3] = experiment: Anti-inflammatory activity in mouse model of ovalbumin-induced asthma assessed as decrease in eosinophilic infilteration administered ip daily; assay type: functional, organism-based
PI3K p110 beta/p85 alpha = PI3K p110 beta/p85 alpha (Homo sapiens, UniProt P42338); experiment: Inhibition of PI3KCbeta/PIK3R1 (unknown origin); assay type: protein-complex assay
Sequence of PI3K p110 beta/p85 alpha (P27986 whole entry): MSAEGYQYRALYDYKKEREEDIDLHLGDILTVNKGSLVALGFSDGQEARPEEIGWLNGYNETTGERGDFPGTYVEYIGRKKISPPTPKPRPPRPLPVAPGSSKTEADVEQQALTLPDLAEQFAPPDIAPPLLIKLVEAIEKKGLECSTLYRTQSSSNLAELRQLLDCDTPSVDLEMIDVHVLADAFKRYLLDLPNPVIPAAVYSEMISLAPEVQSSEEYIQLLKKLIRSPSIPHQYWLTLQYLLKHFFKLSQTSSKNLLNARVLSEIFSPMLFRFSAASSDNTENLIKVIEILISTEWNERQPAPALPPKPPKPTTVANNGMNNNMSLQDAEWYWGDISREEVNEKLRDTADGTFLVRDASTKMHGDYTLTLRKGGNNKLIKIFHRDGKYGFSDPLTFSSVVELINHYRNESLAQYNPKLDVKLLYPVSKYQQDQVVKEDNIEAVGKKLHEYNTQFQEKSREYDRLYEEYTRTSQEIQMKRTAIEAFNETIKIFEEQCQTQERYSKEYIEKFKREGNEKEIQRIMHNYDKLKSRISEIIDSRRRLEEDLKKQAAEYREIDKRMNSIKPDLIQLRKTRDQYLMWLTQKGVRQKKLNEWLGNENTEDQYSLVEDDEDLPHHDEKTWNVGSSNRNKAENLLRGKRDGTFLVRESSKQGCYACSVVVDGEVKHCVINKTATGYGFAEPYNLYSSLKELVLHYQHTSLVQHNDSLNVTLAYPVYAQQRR
Sequence of PI3K p110 beta/p85 alpha (P42338 whole entry): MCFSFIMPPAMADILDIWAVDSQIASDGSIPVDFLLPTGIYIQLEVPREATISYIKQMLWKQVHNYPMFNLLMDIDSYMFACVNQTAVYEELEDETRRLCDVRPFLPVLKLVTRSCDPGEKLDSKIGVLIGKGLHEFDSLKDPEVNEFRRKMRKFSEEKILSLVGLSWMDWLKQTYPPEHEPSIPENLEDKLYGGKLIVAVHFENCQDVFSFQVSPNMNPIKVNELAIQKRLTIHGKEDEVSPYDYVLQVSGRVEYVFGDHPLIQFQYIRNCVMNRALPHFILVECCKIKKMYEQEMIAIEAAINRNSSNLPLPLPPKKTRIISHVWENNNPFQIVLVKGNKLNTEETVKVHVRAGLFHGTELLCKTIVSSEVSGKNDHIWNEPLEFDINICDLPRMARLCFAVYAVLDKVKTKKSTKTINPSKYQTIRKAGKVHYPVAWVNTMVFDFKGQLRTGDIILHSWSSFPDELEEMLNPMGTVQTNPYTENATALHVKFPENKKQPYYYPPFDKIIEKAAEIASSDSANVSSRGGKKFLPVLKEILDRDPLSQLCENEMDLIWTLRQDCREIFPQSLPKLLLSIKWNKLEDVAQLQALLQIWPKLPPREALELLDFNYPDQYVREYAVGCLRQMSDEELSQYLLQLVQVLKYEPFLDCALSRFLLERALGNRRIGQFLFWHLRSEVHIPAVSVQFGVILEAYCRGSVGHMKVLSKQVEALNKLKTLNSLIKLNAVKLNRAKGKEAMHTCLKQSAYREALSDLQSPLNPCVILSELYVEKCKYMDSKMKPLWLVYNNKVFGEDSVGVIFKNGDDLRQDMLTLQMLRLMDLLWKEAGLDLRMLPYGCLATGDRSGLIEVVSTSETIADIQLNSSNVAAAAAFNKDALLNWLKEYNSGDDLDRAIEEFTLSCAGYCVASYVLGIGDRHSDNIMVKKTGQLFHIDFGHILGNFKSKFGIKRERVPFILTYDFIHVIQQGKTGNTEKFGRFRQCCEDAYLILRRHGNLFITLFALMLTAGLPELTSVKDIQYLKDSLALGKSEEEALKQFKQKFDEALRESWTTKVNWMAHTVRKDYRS

Mus musculus [4] = experiment: Anti-inflammatory activity in mouse model of ovalbumin-induced asthma assessed as decrease in eosinophilic infilteration at 90 mg/kg aerosolized daily; assay type: functional, organism-based
Mus musculus [5] = experiment: Anti-inflammatory activity in mouse model of ovalbumin-induced asthma assessed as decrease in macrophage infilteration at 90 mg/kg aerosolized daily; assay type: functional, organism-based
Mus musculus [6] = experiment: Anti-inflammatory activity in mouse model of ovalbumin-induced asthma assessed as decrease in total leukocytic infilterate in BAL at 90 mg/kg aerosolized daily; assay type: functional, organism-based
[7] = molecular target: Phosphatidylinositol 4,5-bisphosphate 3-kinase catalytic subunit gamma isoform (Homo sapiens, UniProt P48736); experiment: Inhibition of PI3KCgamma (unknown origin)
Sequence of Phosphatidylinositol 4,5-bisphosphate 3-kinase catalytic subunit gamma isoform (P48736 whole entry, canonical isoform): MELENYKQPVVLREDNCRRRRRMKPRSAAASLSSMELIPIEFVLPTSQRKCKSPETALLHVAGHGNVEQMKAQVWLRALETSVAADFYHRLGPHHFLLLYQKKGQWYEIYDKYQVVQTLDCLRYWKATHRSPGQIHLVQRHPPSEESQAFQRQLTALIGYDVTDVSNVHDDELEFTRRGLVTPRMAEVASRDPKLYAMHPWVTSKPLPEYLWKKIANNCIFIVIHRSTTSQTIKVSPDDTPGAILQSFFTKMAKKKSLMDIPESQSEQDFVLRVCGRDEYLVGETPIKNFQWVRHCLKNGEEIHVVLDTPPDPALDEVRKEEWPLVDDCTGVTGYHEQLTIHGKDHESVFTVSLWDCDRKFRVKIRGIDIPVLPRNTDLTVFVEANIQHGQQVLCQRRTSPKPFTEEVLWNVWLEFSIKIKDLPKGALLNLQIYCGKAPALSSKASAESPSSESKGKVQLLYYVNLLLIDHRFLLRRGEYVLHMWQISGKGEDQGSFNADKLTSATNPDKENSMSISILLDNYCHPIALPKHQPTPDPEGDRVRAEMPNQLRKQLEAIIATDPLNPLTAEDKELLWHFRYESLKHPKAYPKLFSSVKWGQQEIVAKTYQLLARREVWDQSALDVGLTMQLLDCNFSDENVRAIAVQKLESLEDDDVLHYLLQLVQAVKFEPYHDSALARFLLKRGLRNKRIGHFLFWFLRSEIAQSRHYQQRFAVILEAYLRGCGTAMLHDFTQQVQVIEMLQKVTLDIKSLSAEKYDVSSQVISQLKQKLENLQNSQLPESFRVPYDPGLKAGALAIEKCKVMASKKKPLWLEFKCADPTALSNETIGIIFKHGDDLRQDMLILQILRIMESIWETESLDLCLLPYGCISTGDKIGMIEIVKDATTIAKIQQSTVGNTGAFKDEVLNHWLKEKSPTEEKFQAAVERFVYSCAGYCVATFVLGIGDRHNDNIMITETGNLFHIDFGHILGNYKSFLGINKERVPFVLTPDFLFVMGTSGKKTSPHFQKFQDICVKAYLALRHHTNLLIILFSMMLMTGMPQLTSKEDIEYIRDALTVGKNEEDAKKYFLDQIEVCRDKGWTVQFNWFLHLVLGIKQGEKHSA

Mus musculus [8] = experiment: Anti-inflammatory activity in mouse model of ovalbumin-induced asthma assessed as decrease in neutrophilic infilteration at 90 mg/kg aerosolized daily; assay type: functional, organism-based
[9] = molecular target: PI3-kinase p110-alpha/p85-alpha (Homo sapiens, UniProt P42336); experiment: Inhibition of PI3KCalpha/PIK3R1 (unknown origin); assay type: protein-complex assay
Sequence of PI3-kinase p110-alpha/p85-alpha (P27986 whole entry): as the sequence (P27986 whole entry) above
Sequence of PI3-kinase p110-alpha/p85-alpha (P42336 whole entry): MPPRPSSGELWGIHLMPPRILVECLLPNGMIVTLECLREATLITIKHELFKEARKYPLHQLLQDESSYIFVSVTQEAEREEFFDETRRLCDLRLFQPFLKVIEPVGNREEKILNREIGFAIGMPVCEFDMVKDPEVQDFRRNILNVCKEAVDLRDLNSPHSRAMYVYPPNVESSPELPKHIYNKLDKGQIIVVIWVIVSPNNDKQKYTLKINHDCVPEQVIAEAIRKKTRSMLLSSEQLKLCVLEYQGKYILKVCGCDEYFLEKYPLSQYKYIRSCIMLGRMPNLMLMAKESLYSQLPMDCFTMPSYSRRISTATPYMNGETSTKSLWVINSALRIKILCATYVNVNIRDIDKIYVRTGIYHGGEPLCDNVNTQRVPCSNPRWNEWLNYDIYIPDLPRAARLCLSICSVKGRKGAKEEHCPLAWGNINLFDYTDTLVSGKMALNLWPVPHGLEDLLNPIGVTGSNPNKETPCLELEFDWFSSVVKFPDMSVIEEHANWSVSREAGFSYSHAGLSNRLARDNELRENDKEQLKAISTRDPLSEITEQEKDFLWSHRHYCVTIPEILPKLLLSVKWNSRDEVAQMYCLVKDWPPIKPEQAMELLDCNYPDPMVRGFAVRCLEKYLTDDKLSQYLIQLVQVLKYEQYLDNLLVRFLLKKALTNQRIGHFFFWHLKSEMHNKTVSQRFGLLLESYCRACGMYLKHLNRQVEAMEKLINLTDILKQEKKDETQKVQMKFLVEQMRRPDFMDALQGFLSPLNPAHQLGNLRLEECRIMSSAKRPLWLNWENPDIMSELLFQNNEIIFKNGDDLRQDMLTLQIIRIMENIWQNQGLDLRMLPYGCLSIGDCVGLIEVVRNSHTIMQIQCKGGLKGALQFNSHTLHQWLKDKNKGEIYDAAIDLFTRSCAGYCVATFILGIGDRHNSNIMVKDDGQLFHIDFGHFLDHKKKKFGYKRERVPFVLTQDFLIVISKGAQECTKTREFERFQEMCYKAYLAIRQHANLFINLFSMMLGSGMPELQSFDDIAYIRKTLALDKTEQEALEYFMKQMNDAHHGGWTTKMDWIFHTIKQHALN

Mus musculus [10] = experiment: Anti-inflammatory activity in mouse model of ovalbumin-induced asthma assessed as decrease in total leukocytic infilterate in lungs administered ip daily; assay type: functional, organism-based
Mus musculus [11] = experiment: Toxicity in mouse up to 90 mg/kg, ip or iv administered 3 to 5 times/week up to 4 weeks; assay type: organism-based; conditions: in vivo, 672 h
Mus musculus [12] = experiment: Protection against DNFB-induced atopic dermatitis in mouse assessed as reduction in ear thickness at 90 mg/kg, ip measured up to 3 days post DNFB treatment; assay type: functional, organism-based
[13] = molecular target: T1, Phosphatidylinositol 4,5-bisphosphate 3-kinase catalytic subunit delta isoform (Homo sapiens); experiment: Inhibition of PI3Kdelta in human basophils assessed as reduction in IgE-induced degranulation by measuring decrease in CD63 expression level by flow cast assay
Mus musculus [14] = experiment: Anti-inflammatory activity in mouse model of ovalbumin-induced asthma assessed as decrease in total leukocytic infilterate in BAL administered ip daily; assay type: functional, organism-based
[15] = molecular target: PI3-kinase p110-delta/p85-alpha (Homo sapiens, UniProt O00329); experiment: Inhibition of PI3KCdelta/PIK3R1 (unknown origin); assay type: protein-complex assay
Sequence of PI3-kinase p110-delta/p85-alpha (P27986 whole entry, one chain of several): as the sequence (P27986 whole entry) above

Mus musculus [16] = experiment: Anti-asthmatic activity in mouse model of ovalbumin-induced asthma assessed as decrease in methacholine-induced lung resistance at 90 mg/kg, ip daily by plethysmographic method; assay type: functional, organism-based
[17] = molecular target: T1, Phosphatidylinositol 4,5-bisphosphate 3-kinase catalytic subunit delta isoform (Homo sapiens); experiment: Inhibition of PI3Kdelta in human basophils assessed as reduction in IgE-induced degranulation by decrease in measuring CD203c expression level by fluorescence assay
Mus musculus [18] = experiment: Anti-asthmatic activity in mouse model of ovalbumin-induced asthma assessed as decrease in methacholine-induced lung resistance at 90 mg/kg aerosolized daily by plethysmographic method; assay type: functional, organism-based
Mus musculus [19] = experiment: Anti-asthmatic activity in mouse model of ovalbumin-induced asthma assessed as decrease in methacholine-induced lung resistance at 10 mg/kg, ip daily by plethysmographic method; assay type: functional, organism-based
Mus musculus [20] = experiment: Protection against DNFB-induced atopic dermatitis in mouse assessed as reduction in ear thickness administered topically measured up to 4 days post DNFB treatment; assay type: functional, organism-based
Mus musculus [21] = experiment: Anti-inflammatory activity in mouse model of ovalbumin-induced asthma assessed as decrease in total leukocytic infilterate in BAL at 10 mg/kg aerosolized daily; assay type: functional, organism-based
Mus musculus [22] = experiment: Anti-asthmatic activity in mouse model of ovalbumin-induced asthma assessed as decrease in methacholine-induced lung resistance at 10 mg/kg aerosolized daily by plethysmographic method; assay type: functional, organism-based

SMILES	Activity [1]	Activity [2]	further results
COc1cccc(/C=C/C(=O)c2c(OC)cccc2OC)c1	100%	82%	
COc1cccc(OC)c1/C=C/C(=O)c1c(OC)cccc1OC	94%	96%	
COc1ccccc1/C=C/C(=O)c1cc(OC)c(OC)cc1OC	55%	65%	
COc1cccc(OC)c1/C=C/C(=O)c1c(OC)cc(OC)c(C2CCN(C)CC2)c1O	4%	41%	
COc1cc(OC)c(/C=C/C(=O)c2c(OC)cc(OC)c(C3CCN(C)CC3)c2O)c(OC)c1			Activity (Mus musculus [3]): Dose-dependent effect; pIC50 (PI3K p110 beta/p85 alpha): < 5.00; Activity (Mus musculus [4]): inactive; Activity (Mus musculus [5]): inactive; Activity (Mus musculus [6]): inactive; pIC50 [7]: 5.00; Activity (Mus musculus [8]): inactive; pIC50 [9]: < 5.00; Activity (Mus musculus [10]): Dose-dependent effect; Activity (Mus musculus [11]): Non-Toxic; Activity (Mus musculus [12]): Active; inhibition [13]: Dose-dependent effect; Activity (Mus musculus [14]): Dose-dependent effect; pIC50 [15]: 5.14; Activity (Mus musculus [16]): Active; inhibition [17]: Dose-dependent effect; Activity (Mus musculus [18]): Active
O=C(O)c1cc(=O)c2c(OCC(O)COc3cccc4oc(C(=O)O)cc(=O)c34)cccc2o1			Activity (Mus musculus [19]): inactive
CCC(=O)OCC(=O)[C@@]1(OC(=O)CC)[C@@H](C)C[C@H]2[C@@H]3CCC4=CC(=O)C=C[C@]4(C)[C@@]3(F)[C@@H](O)C[C@@]21C			Activity (Mus musculus [20]): Active
COc1cc(OC)c(OC)cc1/C=C/C(=O)c1cc(OC)c(OC)cc1OC	66%	70%	
COc1cc(OC)c(C2CCN(C)CC2)c(O)c1C(=O)/C=C/c1c(Cl)cccc1Cl	6%	24%	
COc1cccc(OC)c1C(=O)/C=C/c1ccc(C(F)(F)F)cc1	64%	81%	
C[C@@H]1C[C@H]2[C@@H]3CCC4=CC(=O)C=C[C@]4(C)[C@@]3(F)[C@@H](O)C[C@]2(C)[C@@]1(O)C(=O)CO			Activity (Mus musculus [21]): Active; Activity (Mus musculus [22]): Active

More lines, main results first:

Activity [1]	Activity [2]	SMILES	further results
78%	81%	COc1cc(OC)c(/C=C/C(=O)c2c(OC)cccc2OC)c(OC)c1	
40%	54%	COc1cc(OC)c(C(=O)/C=C/c2ccc(OC)c(O)c2)c(OC)c1	
81%	85%	COc1cc(O)c(C(=O)/C=C/c2c(OC)cccc2OC)c(OC)c1	
91%	95%	COc1cc(OC)c(/C=C/C(=O)c2ccc(OC)c(OC)c2)c(OC)c1	
53%	51%	COc1cc(OC)c(C(=O)/C=C/c2cc(OC)c(OC)cc2OC)c(OC)c1	
48%	65%	COc1cc(OC)c(C(=O)/C=C/c2ccccc2OC)c(OC)c1	
76%	86%	COc1ccc(C(=O)/C=C/c2c(OC)cc(OC)cc2OC)c(OC)c1	
49%	62%	COc1ccc(/C=C/C(=O)c2cc(OC)c(OC)cc2OC)cc1O	
92%	93%	COc1ccc(C(=O)/C=C/c2cc(OC)c(OC)c(OC)c2)c(O)c1	
63%	75%	COc1cc(OC)c(/C=C/C(=O)c2c(OC)cc(N)cc2OC)c(OC)c1	
95%	91%	COc1ccc(C(=O)/C=C/c2c(OC)cc(OC)cc2OC)c(O)c1	
67%	68%	COc1cc(OC)c(/C=C/C(=O)c2c(OC)cc(OC)cc2OC)c(OC)c1	
